Test results taken from ChEMBL document CHEMBL6087462, “Cuminaldehyde Potentiates Antiproteolytic Peptide Efficacy via Parallel Pathways of Enhanced Inner Membrane-Damaging Activity and Inhibition of Bacterial Energy Metabolism” (J Med Chem, 2025).
Blank lines part the entries; values can stand above or below the compound they belong to. Activity calls are given as the source filed them. The calls are words filed in the database; no cut-off is given here.

Assays:
Staphylococcus aureus [1] = assay: Antimicrobial activity against Staphylococcus aureus ATCC 25923 assessed as reduction in microbial growth by CLSI based broth microdilution method; type: functional
Staphylococcus aureus [2] = assay: Antimicrobial activity against Staphylococcus aureus ATCC 29213 assessed as reduction in microbial growth by CLSI based broth microdilution method; type: functional
Escherichia coli [3] = assay: Antimicrobial activity against Escherichia coli 078 assessed as reduction in microbial growth by CLSI based broth microdilution method; type: functional
[4] = Antimicrobial activity against Salmonella enterica subsp. enterica serovar Pullorum ATCC 7913 assessed as reduction in microbial growth by CLSI based broth microdilution method; type: functional
Salmonella typhimurium [5] = assay: Antimicrobial activity against Salmonella typhimurium ATCC 7731 assessed as reduction in microbial growth by CLSI based broth microdilution method; type: functional, Salmonella enterica subsp. enterica serovar Typhimurium; conditions: Salmonella enterica
Escherichia coli [6] = assay: Antimicrobial activity against Escherichia coli ATCC 25922 assessed as reduction in microbial growth by CLSI based broth microdilution method; type: functional
Escherichia coli [7] = assay: Antimicrobial activity against Escherichia coli K88 assessed as reduction in microbial growth by CLSI based broth microdilution method; type: functional
Enterococcus faecalis [8] = assay: Antimicrobial activity against Enterococcus faecalis ATCC 29212 assessed as reduction in microbial growth by CLSI based broth microdilution method; type: functional
[9] = system: Staphylococcus epidermidis; assay: Antimicrobial activity against Staphylococcus epidermidis ATCC 12228 assessed as reduction in microbial growth by CLSI based broth microdilution method; type: functional
Escherichia coli [10] = assay: Antimicrobial activity against Escherichia coli UB 1005 assessed as reduction in microbial growth by CLSI based broth microdilution method; type: functional
Pseudomonas aeruginosa [11] = assay: Antimicrobial activity against Pseudomonas aeruginosa ATCC 27853 assessed as reduction in microbial growth by CLSI based broth microdilution method; type: functional
Escherichia coli [12] = assay: Antimicrobial activity against Escherichia coli K99 assessed as reduction in microbial growth by CLSI based broth microdilution method; type: functional
Salmonella typhimurium [13] = assay: Antimicrobial activity against Salmonella typhimurium ATCC 14028 assessed as reduction in microbial growth by CLSI based broth microdilution method; type: functional, Salmonella enterica subsp. enterica serovar Typhimurium; conditions: Salmonella enterica
Staphylococcus aureus [14] = assay: Antimicrobial activity against Staphylococcus aureus 43300 assessed as reduction in microbial growth by CLSI based broth microdilution method; type: functional
Escherichia coli [15] = assay: Antimicrobial activity against Escherichia coli ATCC 25922 assessed as reduction in microbial growth in presence of SGF; type: functional, organism-based
Staphylococcus aureus [16] = assay: Bactericidal activity against Staphylococcus aureus ATCC 25923 at 0.5 times MIC incubated for 24 hrs by time kill assay; type: functional, organism-based
Staphylococcus aureus [17] = assay: Synergistic bactericidal activity Staphylococcus aureus ATCC 25923 at 0.5 times MIC incubated for 24 hrs in presence of cuminaldehyde by time kill assay; type: functional, organism-based
Mus musculus [18] = species on record: Mus musculus; assay: Anti-inflammatory activity in ETEC-induced enteritis mouse model assessed as decrease in IL-6 level in colon by ELISA analysis; type: functional, organism-based
Mus musculus [19] = species on record: Mus musculus; assay: Anti-inflammatory activity in ETEC-induced enteritis mouse model assessed as decrease in TNF-alpha level in colon by ELISA analysis; type: functional, organism-based
Escherichia coli [20] = assay: Antibacterial activity against Escherichia coli infected in K88-induced enteritis mouse model assessed as reduction in number of colonies in ileum at 50 mg/kg, ip administered every 12 hrs for 2 days; type: functional, organism-based; conditions: time 2.0 day
Cell membrane [21] = assay: Induction of cytoplasmic membrane depolarization in Escherichia coli ATCC 25922 by DiSC3(5) dye-based fluorescence assay; type: subcellular
Pseudomonas aeruginosa [22] = assay: Synergistic bactericidal activity against Pseudomonas aeruginosa 27853 at 0.5 times MIC incubated for 24 hrs in presence of cuminaldehyde by time kill assay; type: functional, organism-based
Klebsiella pneumoniae [23] = assay: Bactericidal activity against Klebsiella pneumoniae at 0.5 times MIC incubated for 24 hrs by time kill assay; type: functional, organism-based
Escherichia coli [24] = assay: Antibacterial activity against Escherichia coli infected in K88-induced enteritis mouse model assessed as reduction in number of colonies in feces at 50 mg/kg, ip administered every 12 hrs for 2 days; type: functional, organism-based; conditions: time 2.0 day
Enterococcus faecalis [25] = assay: Synergistic bactericidal activity Enterococcus faecalis ATCC 29212 at 0.5 times MIC incubated for 24 hrs in presence of cuminaldehyde by time kill assay; type: functional, organism-based
Acinetobacter baumannii [26] = assay: Bactericidal activity against Acinetobacter baumannii at 0.5 times MIC incubated for 24 hrs by time kill assay; type: functional, organism-based
[27] = system: Staphylococcus epidermidis; assay: Synergistic bactericidal activity Staphylococcus epidermidis ATCC 12228 at 0.5 times MIC incubated for 24 hrs in presence of cuminaldehyde by time kill assay; type: functional, organism-based
Escherichia coli [28] = assay: Antimicrobial activity against Escherichia coli ATCC 25922 assessed as reduction in microbial growth in presence of Ca+; type: functional, organism-based
Escherichia coli [29] = assay: Upregulation of intracellular ATP level in Escherichia coli ATCC 25922 at 0.5 to 1 times MIC; type: functional, organism-based
Escherichia coli [30] = assay: Antimicrobial activity against Escherichia coli ATCC 25922 assessed as reduction in microbial growth in presence of LPS; type: functional, organism-based
Pseudomonas aeruginosa [31] = assay: Bactericidal activity against Pseudomonas aeruginosa 27853 at 0.5 times MIC incubated for 24 hrs by time kill assay; type: functional, organism-based
Mus musculus [32] = species on record: Mus musculus; assay: Anti-inflammatory activity in ETEC-induced enteritis mouse model assessed as structural changes in intestine by H and E staining based analysis; type: functional, organism-based
Escherichia coli [33] = assay: Induction of ROS accumulation in Escherichia coli ATCC 25922 at 0.5 to 1 time MIC; type: functional, organism-based
Escherichia coli [34] = assay: Antibacterial activity against Escherichia coli infected in K88-induced enteritis mouse model assessed as reduction in number of colonies in colon at 50 mg/kg, ip administered every 12 hrs for 2 days; type: functional, organism-based; conditions: time 2.0 day
Klebsiella pneumoniae [35] = assay: Synergistic bactericidal activity against Klebsiella pneumoniae at 0.5 times MIC incubated for 24 hrs in presence of cuminaldehyde by time kill assay; type: functional, organism-based
Escherichia coli [36] = assay: Antimicrobial activity against Escherichia coli ATCC 25922 assessed as reduction in microbial growth in presence of Na+; type: functional, organism-based
Escherichia coli [37] = assay: Synergistic bactericidal activity against Escherichia coli K88 at 0.5 times MIC incubated for 24 hrs in presence of cuminaldehyde by time kill assay; type: functional, organism-based
Escherichia coli [38] = assay: Bactericidal activity against Escherichia coli K88 at 0.5 times MIC incubated for 24 hrs by time kill assay; type: functional, organism-based
Mus musculus [39] = species on record: Mus musculus; assay: Anti-inflammatory activity in ETEC-induced enteritis mouse model assessed as decrease in IL-1beta level in colon by ELISA analysis; type: functional, organism-based
Salmonella typhimurium [40] = assay: Synergistic bactericidal activity against Salmonella typhimurium ATCC 14028 at 0.5 times MIC incubated for 24 hrs in presence of cuminaldehyde by time kill assay; type: functional, organism-based; conditions: Salmonella enterica subsp. enterica serovar Typhimurium
Cell membrane [41] = assay: Induction of outer membrane permeabilization in Escherichia coli ATCC 25922 in presence of cuminaldehyde by NPN-dye based assay; type: subcellular
Escherichia coli [42] = assay: Induction of ROS accumulation in Escherichia coli ATCC 25922 at 0.5 to 1 time MIC in presence of cuminaldehyde; type: functional, organism-based
Escherichia coli [43] = assay: Upregulation of intracellular ATP level in Escherichia coli ATCC 25922 at 0.5 to 1 times MIC in presence of cuminaldehyde; type: functional, organism-based
Escherichia coli [44] = assay: Antimicrobial activity against Escherichia coli ATCC 25922 assessed as reduction in microbial growth in presence of Mg+; type: functional, organism-based
Cell membrane [45] = assay: Induction of outer membrane permeabilization in Escherichia coli ATCC 25922 by NPN-dye based assay; type: subcellular
Streptococcus agalactiae [46] = assay: Bactericidal activity against Streptococcus agalactiae CICC 10465 at 0.5 times MIC incubated for 24 hrs by time kill assay; type: functional, organism-based
Escherichia coli [47] = assay: Antimicrobial activity against Escherichia coli ATCC 25922 assessed as reduction in microbial growth in presence of SIF; type: functional, organism-based
Streptococcus agalactiae [48] = assay: Synergistic bactericidal activity Streptococcus agalactiae CICC 10465 at 0.5 times MIC incubated for 24 hrs in presence of cuminaldehyde by time kill assay; type: functional, organism-based
Acinetobacter baumannii [49] = assay: Synergistic bactericidal activity against Acinetobacter baumannii at 0.5 times MIC incubated for 24 hrs in presence of cuminaldehyde by time kill assay; type: functional, organism-based
Salmonella typhimurium [50] = assay: Bactericidal activity against Salmonella typhimurium ATCC 14028 at 0.5 times MIC incubated for 24 hrs by time kill assay; type: functional, organism-based; conditions: Salmonella enterica subsp. enterica serovar Typhimurium
Cell membrane [51] = assay: Induction of cytoplasmic membrane depolarization in Escherichia coli ATCC 25922 assessed as increase in fluorescence intensity in presence of cuminaldehyde by DiSC3(5) dye-based fluorescence assay
Enterococcus faecalis [52] = assay: Bactericidal activity against Enterococcus faecalis ATCC […] at 0.5 times MIC incubated for 24 hrs by time kill assay; type: functional, organism-based
[53] = system: Staphylococcus epidermidis; assay: Bactericidal activity against Staphylococcus epidermidis ATCC 12228 at 0.5 times MIC incubated for 24 hrs by time kill assay; type: functional, organism-based
Escherichia coli [54] = assay: Antibacterial activity against Escherichia coli infected in K88-induced enteritis mouse model assessed as reduction in diarrhea score at 50 mg/kg, ip administered every 12 hrs for 2 days; type: functional, organism-based; conditions: time 2.0 day

MIC (Staphylococcus aureus [1]): 1020 µg/mL | MIC (Staphylococcus aureus [2]): 1020 µg/mL | MIC (Escherichia coli [3]): 8190 µg/mL | MIC [4]: 8190 µg/mL | MIC (Salmonella typhimurium [5]): 8190 µg/mL | MIC (Escherichia coli [6]): 8190 µg/mL | MIC (Escherichia coli [7]): 16400 µg/mL | MIC (Enterococcus faecalis [8]): 4100 µg/mL | MIC [9]: 4100 µg/mL | MIC (Escherichia coli [10]): 16400 µg/mL | MIC (Pseudomonas aeruginosa [11]): 4100 µg/mL | MIC (Escherichia coli [12]): 8190 µg/mL | MIC (Salmonella typhimurium [13]): 8190 µg/mL | MIC (Staphylococcus aureus [14]): 1020 µg/mL
SMILES: CC(C)=CCC/C(C)=C/C=O [CITRAL]

SMILES: CC[C@H](C)[C@H](NC(=O)[C@@H](NC(=O)[C@@H](CCCNC(=N)N)NC(=O)[C@H](C)NC(=O)[C@H](C)NC(=O)C(N)Cc1cccc2ccccc12)[C@@H](C)CC)C(=O)N[C@@H](CC(C)C)C(=O)N[C@H](CCCNC(=N)N)C(=O)N[C@@H](Cc1c[nH]c2ccccc12)C(=O)N[C@H](CCCNC(=N)N)C(=O)N[C@@H](Cc1ccccc1)C(=O)N[C@@H](CCCNC(=N)N)C(=O)O (some centres undefined)
Activity (Escherichia coli [15]): Active | Activity (Staphylococcus aureus [16]): Active | Activity (Staphylococcus aureus [17]): Active | Activity (Mus musculus [18]): Active | Activity (Mus musculus [19]): Active | Activity (Escherichia coli [20]): Active | Activity (Cell membrane [21]): Dose-dependent-effect | Activity (Pseudomonas aeruginosa [22]): Active | Activity (Klebsiella pneumoniae [23]): Active | Activity (Escherichia coli [24]): Active | Activity (Enterococcus faecalis [25]): Active | Activity (Acinetobacter baumannii [26]): Active | Activity [27]: Active | Activity (Escherichia coli [28]): Active | Activity (Escherichia coli [29]): Active | Activity (Escherichia coli [30]): Active | Activity (Pseudomonas aeruginosa [31]): Active | Activity (Mus musculus [32]): Active | Activity (Escherichia coli [33]): Active | Activity (Escherichia coli [34]): Active | Activity (Klebsiella pneumoniae [35]): Active | Activity (Escherichia coli [36]): Active | Activity (Escherichia coli [37]): Active | Activity (Escherichia coli [38]): Active | Activity (Mus musculus [39]): Active | Activity (Salmonella typhimurium [40]): Active | Activity (Cell membrane [41]): Active | Activity (Escherichia coli [42]): Active | Activity (Escherichia coli [43]): Active | Activity (Escherichia coli [44]): Active | Activity (Cell membrane [45]): inactive | Activity (Streptococcus agalactiae [46]): Active | Activity (Escherichia coli [47]): Active | Activity (Streptococcus agalactiae [48]): Active | Activity (Acinetobacter baumannii [49]): Active | Activity (Salmonella typhimurium [50]): Active | Activity (Cell membrane [51]): Active | Activity (Enterococcus faecalis [52]): Active | Activity [53]: Active | Activity (Escherichia coli [54]): Active
